# Measurements as given in PubChem BioAssay (NCI).
#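 These data come from cells grown in 96-well plates and exposed to compound for 48 hours at five concentrations. At the GI50, growth is halved. At the TGI there is no net growth.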
# Assays:
# Assay in all cases: NCI tumour cell line growth inhibition, 48 h
# [1] = system: OVCAR-4 ovarian
# [2] = system: M14 melanoma
# [3] = system: SK-MEL-2 melanoma
# [4] = system: MCF7 breast
# [5] = system: XF 498 CNS
# [6] = system: P388 leukemia
# [7] = system: P388/ADR leukemia
# [8] = system: HCT-15 colon
# [9] = system: PC-3 prostate
# [10] = system: T-47D breast
# [11] = system: HS 578T breast
SMILES,TGI [1] [µM],TGI [2] [µM],TGI [3] [µM],TGI [4] [µM],TGI [5] [µM],TGI [6] [µM],TGI [7] [µM],TGI [8] [µM],GI50 [1] [µM],GI50 [4] [µM],GI50 [9] [µM],TGI [9] [µM],GI50 [3] [µM],GI50 [8] [µM],TGI [10] [µM],TGI [11] [µM],GI50 [10] [µM],GI50 [2] [µM],GI50 [11] [µM]
CCOC(=O)C1=C(C)N(C2OC(COC(=O)c3ccccc3)C(OC(=O)c3ccccc3)C2OC(=O)c2ccccc2)C(=S)NC1c1ccccc1 (stereo not drawn),> 100,93.2,> 100,–,–,–,–,–,–,–,–,–,–,–,–,–,–,–,–
C(=C/c1nc2ccccc2o1)/c1ccc2c(c1)OCO2,44.6,–,36.3,> 79.8,48.8,> 35.8,> 43.7,> 100,–,–,–,–,–,–,–,–,–,–,–
CN/N=C(\C(=O)Nc1ccc(C)c(C)c1)C(C(=O)OC)c1nc2ccc([N+](=O)[O-])cc2[nH]c1=O (stereo not drawn),> 100,> 100,> 100,–,> 100,–,–,> 100,–,–,–,–,–,–,–,–,–,–,–
CCOC(C)OC1CC(n2cc(C)c(=O)[nH]c2=O)OC1CO (stereo not drawn),> 100,> 100,> 100,–,> 100,–,–,> 100,–,–,–,–,–,–,–,–,–,–,–
C=C(C)[C@@H]1CC[C@]2(CO)CC[C@]3(C)[C@H](CC[C@@H]4[C@@]5(C)CC[C@H](NCO)C(C)(C)[C@@H]5CC[C@]43C)[C@@H]12,1.59,–,1.83,1.61,–,–,–,–,0.827,0.794,0.85,1.85,0.961,–,–,–,–,–,–
CCOC(=O)C(C)N1C(=O)c2ccccc2S1(=O)=O (stereo not drawn),> 100,–,> 100,> 100,> 100,> 100,> 100,> 100,–,–,–,–,–,–,–,–,–,–,–
C=C(C)[C@@H]1CC[C@]2(C(=O)NC(C)=O)CC[C@]3(C)[C@H](CC[C@@H]4[C@@]5(C)CCCNC(C)(C)[C@@H]5CC[C@]43C)[C@@H]12,3.23,–,3.73,3,–,–,–,2.97,1.51,1.41,1.59,3.5,1.92,1.52,–,–,–,–,–
CN1CN(C(=O)N2CN(C)C(=O)N(C)C2)CN(C)C1=O,–,> 100,> 100,–,> 100,–,–,> 100,–,–,–,–,–,–,–,–,–,–,–
NC(=O)Oc1ccccc1,> 100,> 100,–,> 100,–,–,–,> 100,–,–,–,> 100,–,–,> 100,> 100,–,–,–
O=C(CCC1CCCCN1)Nc1ccc2c(c1)C(=O)c1ccc(NC(=O)CCN3CCCCC3)cc1C2=O (stereo not drawn),5.38,2.8,–,–,–,–,–,–,–,–,–,–,–,–,–,–,–,–,–
CCOC(=O)Cn1c(=O)c(C)cn(COCCO)c1=O,> 100,> 100,> 100,> 100,–,–,–,–,–,–,–,> 100,–,–,> 100,> 100,–,–,–
COc1ccc(C2=NC(c3ccc(Cl)cc3)C(c3ccc(Cl)cc3)N2C(=O)N2CCNC(=O)C2)c(OC(C)C)c1 (stereo not drawn),4.47,3.31,4.15,4.16,–,–,–,3.86,2.16,2.06,2.26,4.79,2.08,1.91,> 10,6.45,3.67,1.84,2.65
CC1OC(=O)C(C(C)C)NC(=O)C(C(C)C)OC(=O)C(C(C)C)NC(=O)C(C)OC(=O)C(C(C)C)NC(=O)C(C(C)C)OC(=O)C(C(C)C)NC(=O)C(C)OC(=O)C(C(C)C)NC(=O)C(C(C)C)OC(=O)C(C(C)C)NC1=O (stereo not drawn),–,–,0.167,0.0686,–,0.25,0.0325,4.53,–,–,–,–,–,0.000358,0.0138,–,–,–,–
